Measurements taken from patent US11141406B2, “Pharmaceutical compounds” (REVIRAL LIMITED, priority 2017, dated 2021).

Legend:
RSV A2, 0709161v = assay: RSV plaque reduction assay, alternative conditions (Hep G2 cells); assay type: cell-based; conditions: human respiratory syncytial virus, HepG2, mean of at least 2 independent experiments, read-out: RSV Plaque Reduction Assay Strain A2 IC50
Method: (§1) Plates were scanned and analyzed using the Immunospot S6 UV analyzer, which is equipped with BioSpot analysis software for counting immunostained plaques (virospots). Plaque counts were used to calculate % infection relative to the mean of the spot count (SC) in the virus control wells for RSV. IC50/IC90 values were calculated as 50% or 90% reduction in signal, respectively, by interpolation of inhibition curves fitted with a 4-parameter nonlinear regression with a variable slope in GraphPad 5.0 (Prism). Alternatively, where noted the plaque reduction assay was performed as follows. Hep G2 cells (ECACC, 85011430) were passaged in flasks and seeded in 12-well plates in DMEM containing antibiotics and supplemented with 10% FBS, 24 h prior to inoculation. During inoculation and subsequent incubation, cells were cultured in DMEM containing 2% FBS. 75 plaque forming unit (PFU)/well of RSV (RSV A2, 0709161v) was mixed with 8 serial dilutions of compound. Subsequently, 200 μL of the virus/compound mixtures was added to confluent Hep G2 cell monolayers, for a 2 h infection, with manual shaking every 15 min. Infectious supernatant was then removed and replaced with 2 mL of overlay, comprising 4 parts of DMEM+2% FBS and 1 part 4% CMC, with 0.25% DMSO. The cells were incubated at 37° C. in a humidified 5% CO2 incubator for 5 days.
Overlay was removed, and cells were washed with PBS before fixing with a mixture of 75% acetone 25% methanol for 3 minutes and replacing with fresh PBS. […] Staining was carried out whilst shaking at 37° C. First the plates were blocked with 500 uL PBS-T/2% milk powder per well, for 1 hr. This was then replaced with 250 uL PBS-T/2% milk powder containing a pre-titrated amount of the primary antibody (ab1128), for 90 min. The plates were washed 3×5 min with PBS-T, before addition of rabbit anti-goat horse radish peroxidase (AP106P) in 250 μL PBS-T/2% milk powder, and incubated for 1 hr. […]
Plates were scanned and analysed using the Immunospot S6 Macro analyzer, which is equipped with BioSpot analysis software for counting immunostained plaques. […]

RSV A2 VR-1540 = assay: RSV plaque reduction assay, typical conditions (HEp-2 cells); assay type: cell-based; conditions: human respiratory syncytial virus; for IC90: typical protocol, read-out: RSV Plaque Reduction Assay Strain A2 IC90; for IC50: †: typical protocol, n = 1, read-out: RSV Plaque Reduction Assay Strain A2 IC50
Method: The plaque reduction assay was typically performed as follows. HEp-2 cells (ATCC, CCL23) were passaged in flasks and seeded in 96-well plates in DMEM containing antibiotics and supplemented with 10% FBS. During inoculation and subsequent incubation, cells were cultured in DMEM containing 3% FBS. 100 plaque forming unit (PFU)/well of RSV (RSV A2 VR-1540) was mixed with ten serial dilutions of compound. Subsequently, 100 μL of the virus/compound mixtures was added to confluent HEp-2 cell monolayers. The cells and virus/compound mixtures were incubated at 35° C. in a humidified 5% CO2 incubator for 1 day.
Cells were washed twice with PBS before adding 50% v % v EtOH/MeOH, and then stored at −20° C. On the day of the staining, fixative was first removed from the plates. Plates were washed 3× with PBS. A pre-titrated amount of the primary antibody was added in 60 μL PBS/2% milk powder, and plates incubated for 1 h at rt. The plates were washed 3× with PBS/0.05% Tween20 before addition of goat anti-mouse horse radish peroxidase in 60 μL PBS/2% milk powder, and incubated for 1 h at rt. Following three wash steps with PBS/0.05% Tween20, 60 μL ready-to-use TrueBlue was added and plates were incubated at it for 10-15 min before adding MilliQ water. Plates were washed once with water, incubated for 30-60 min and after removal of water, air-dried in the dark.
as §1

Row | Structure (SMILES) | IC50 (RSV A2, 0709161v) | IC90 (RSV A2 VR-1540) | IC50 (RSV A2 VR-1540)
1 | CC(C)CCn1c(CN2C(=O)C(F)(F)c3ccccc32)nc2cc(CN)ccc21 [Compound 13, 1-{[5-(Aminomethyl)-1-(3-methylbutyl)-1H-1,3-benzodiazol-2-yl]methyl}-3,3-difluoro-2,3-dihydro-1H-indol-2-one] | 4.1 nM | – | –
2 | O=C1N(Cc2nc3cc(Cl)ccc3n2C2CCOCC2)c2ccccc2C1(F)F [Compound 10, 1-{[5-Chloro-1-(oxan-4-yl)-1H-1,3-benzodiazol-2-yl]methyl}-3,3-difluoro-2,3-dihydro-1H-indol-2-one] | – | 53 nM | 6.4 nM
3 | CS(=O)(=O)CCCn1c(CN2C(=O)C(F)(F)c3ccccc32)nc2cc(Cl)ccc21 [Compound 5, 1-{[5-Chloro-1-(3-methanesulfonylpropyl)-1H-1,3-benzodiazol-2-yl]methyl}-3,3-difluoro-2,3-dihydro-1H-indol-2-one] | – | 4.4 nM | 1.4 nM
4 | CCS(=O)(=O)N1CCC(n2c(CN3C(=O)C(F)(F)c4ccccc43)nc3cc(Cl)ccc32)CC1 [Compound 9, 1-({5-Chloro-1-[1-(ethanesulfonyl)piperidin-4-yl]-1H-1,3-benzodiazol-2-yl}methyl)-3,3-difluoro-2,3-dihydro-1H-indol-2-one] | 12.6 nM | – | –
